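Dose response: 5 concentrations. Exposure: 48 h. Format: 96-well plates. Endpoint: linear interpolation; highest concentration if not reached. At the GI50, growth is halved.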 The source made the active and inactive calls. Rule as the data show it: active = GI50 up to about 1.1 µM and inactive = higher.
What was measured:
Test in all cases: NCI tumour cell line growth inhibition, 48 h
[1] = test system: A498
[2] = test system: A549
[3] = test system: COLO 205
[4] = test system: EKVX
[5] = test system: HOP-62
[6] = test system: HT-29
[7] = test system: IGROV-1
[8] = test system: KM12
[9] = test system: MDA-N
[10] = test system: NCI-H460
[11] = test system: OVCAR-3
[12] = test system: PC-3
[13] = test system: SF-268
[14] = test system: SF-295
[15] = test system: SNB-19
[16] = test system: SNB-75
[17] = test system: SW-620
[18] = test system: UACC-62
[19] = test system: UO-31
[20] = test system: SK-MEL-2

| Structure (SMILES) | GI50 [1] | GI50 [2] | GI50 [3] | GI50 [4] | GI50 [5] | GI50 [6] | GI50 [7] | GI50 [8] | GI50 [9] | GI50 [10] | GI50 [11] | GI50 [12] | GI50 [13] | GI50 [14] | GI50 [15] | GI50 [16] | GI50 [17] | GI50 [18] | GI50 [19] | GI50 [20] |
| --- | --- | --- | --- | --- | --- | --- | --- | --- | --- | --- | --- | --- | --- | --- | --- | --- | --- | --- | --- | --- |
| CC(=O)O[C@H]1C(=O)[C@@]2(C)[C@H]([C@H](OC(=O)c3ccccc3)[C@]3(O)C[C@H](OC(=O)[C@H](O)[C@@H](NC(=O)c4cccc(N=[N+]=[N-])c4)c4ccccc4)C(C)=C1C3(C)C)[C@]1(OC(C)=O)CO[C@@H]1C[C@@H]2O | 0.0408 µM (active) | 0.0108 µM (active) | 0.00301 µM (active) | > 7.59 µM (inactive) | 0.00813 µM (active) | < 0.0025 µM (active) | 0.00679 µM (active) | 0.0038 µM (active) | < 0.0025 µM (active) | 0.00859 µM (active) | < 0.0025 µM (active) | 0.0047 µM (active) | 0.0289 µM (active) | 0.0247 µM (active) | 0.0129 µM (active) | 0.0173 µM (active) | 0.00621 µM (active) | 0.00731 µM (active) | 1.33 µM (inactive) | – |
| O=NNc1cnc(O)nc1O | 92.7 µM (inactive) | > 100 µM (inactive) | > 100 µM (inactive) | > 100 µM (inactive) | > 100 µM (inactive) | – | 52.4 µM (inactive) | > 100 µM (inactive) | > 100 µM (inactive) | – | 74.8 µM (inactive) | > 100 µM (inactive) | – | > 100 µM (inactive) | > 100 µM (inactive) | 8.75 µM (inactive) | > 100 µM (inactive) | 71.3 µM (inactive) | > 100 µM (inactive) | > 100 µM (inactive) |
| CC(=O)CC12NC(=O)N(C)N=C1N(C)C(=O)N(C)C2=O (configuration not stated) | 31.9 µM (inactive) | > 100 µM (inactive) | 52.4 µM (inactive) | > 100 µM (inactive) | 51.6 µM (inactive) | 35.9 µM (inactive) | > 100 µM (inactive) | 52.8 µM (inactive) | 22.3 µM (inactive) | 65.9 µM (inactive) | 34.8 µM (inactive) | 30.8 µM (inactive) | 78.2 µM (inactive) | 27.4 µM (inactive) | > 10 µM (inactive) | 68.1 µM (inactive) | 33.9 µM (inactive) | 23.9 µM (inactive) | > 100 µM (inactive) | – |
| CC(C)/C(Cl)=N\OC(NC(=O)P(=O)(c1ccccc1)c1ccccc1)(C(F)(F)F)C(F)(F)F | 14.9 µM (inactive) | 5.15 µM (inactive) | 11.7 µM (inactive) | 20 µM (inactive) | 17.3 µM (inactive) | 16.1 µM (inactive) | 10.8 µM (inactive) | 7.26 µM (inactive) | 19.5 µM (inactive) | 15.2 µM (inactive) | 4.97 µM (inactive) | 12.6 µM (inactive) | 12.1 µM (inactive) | 11.6 µM (inactive) | 17.9 µM (inactive) | < 0.01 µM (active) | 21.7 µM (inactive) | 16 µM (inactive) | 7.05 µM (inactive) | – |
| O=c1[nH]c(=O)n(COCc2ccccc2)c2ccc([N+](=O)[O-])cc12 | > 100 µM (inactive) | > 100 µM (inactive) | > 100 µM (inactive) | > 100 µM (inactive) | – | > 100 µM (inactive) | > 100 µM (inactive) | > 100 µM (inactive) | > 100 µM (inactive) | – | > 100 µM (inactive) | > 100 µM (inactive) | – | > 100 µM (inactive) | – | > 100 µM (inactive) | > 100 µM (inactive) | > 100 µM (inactive) | > 100 µM (inactive) | > 100 µM (inactive) |
| COc1cc(OCc2ccccc2)c2c(CCC(=O)O)cc(=O)oc2c1.COc1cc(OCc2ccccc2)cc2oc(=O)cc(CCC(=O)O)c12 | 14.7 µM (inactive) | 43.3 µM (inactive) | 67.3 µM (inactive) | 36.8 µM (inactive) | – | 36.7 µM (inactive) | 51.2 µM (inactive) | 43.8 µM (inactive) | > 100 µM (inactive) | – | 31 µM (inactive) | 56.8 µM (inactive) | 61 µM (inactive) | – | 92.3 µM (inactive) | 60.1 µM (inactive) | > 100 µM (inactive) | 63.2 µM (inactive) | 43.4 µM (inactive) | 30.1 µM (inactive) |

Reference: ChEMBL document CHEMBL1201862, “PubChem BioAssay data set” (2004)
